Values quoted from earlier work as cited in patent publication US20060009471A1, “Amido compounds and their use as pharmaceuticals” (priority 2004, published 2006).

Molecular target: T1, 11βHSD1 in the eye (Homo sapiens, UniProt P28845)
T1 construct: host or cells: eye (non-pigmented epithelial cells) of healthy volunteers, in vivo
Settings: healthy volunteers, after seven days of carbenoxolone treatment

T1 sequence (P28845 whole entry): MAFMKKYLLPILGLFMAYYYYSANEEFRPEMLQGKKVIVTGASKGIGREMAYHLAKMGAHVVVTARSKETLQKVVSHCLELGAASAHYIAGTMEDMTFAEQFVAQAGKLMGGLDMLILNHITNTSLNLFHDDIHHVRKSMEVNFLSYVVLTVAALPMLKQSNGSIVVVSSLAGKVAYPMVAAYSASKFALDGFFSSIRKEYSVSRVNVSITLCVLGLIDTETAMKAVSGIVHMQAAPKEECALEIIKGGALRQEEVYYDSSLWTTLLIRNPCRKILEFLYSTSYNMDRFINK

- IOP reduced: 18%
SMILES: CC1(C)[C@@H](OC(=O)CCC(=O)O)CC[C@]2(C)[C@H]3C(=O)C=C4[C@@H]5C[C@@](C)(C(=O)O)CC[C@]5(C)CC[C@@]4(C)[C@]3(C)CC[C@@H]12 [carbenoxolone]
